Experimental data taken from US6353019B1, “Macrocyclic lactones, compositions, and methods of use” (United States of America as represented by the Department …, priority 1997, dated 2002).

Key:
Assay type in all cases: cell-based, human
Details in all cases: averaged, quadruplicate testing, 48 h, SRB
CCRF-CEM = experiment: NCI 60 cell-line screen, CCRF-CEM (Leukemia)
Experimental: (§1) The NCI screen consists of a panel of 60 different human tumor cell lines against which compounds are tested over a defined range of concentrations to determine the relative degree of growth inhibition or cytotoxicity against each cell line. The design and operation of the screen is such that for each compound tested, both the absolute and relative sensitivities of individual cell lines comprising the screen are sufficiently reproducible that a characteristic profile or “fingerprint” of cellular response is generated. Compounds which are active in the NCI screen show pronounced differential tumor growth-inhibitory and/or cytotoxic effects to the diverse cell lines comprising the 60 cell-line panel. The degree of differential response between the most and least sensitive lines typically may be relatively small (e.g., 2- to 10-fold), or occasionally as great as 3-4 orders of magnitude. […]
(§2) In the screening assay, each agent is tested over a broad concentration range against every cell line in the panel. […] Test compounds are evaluated at five 10-fold dilutions. […] Optical densities are measured on automated plate readers, followed by computerized data acquisition, processing, storage, and availability for display and analysis. […]

HL-60-TB = experiment: NCI 60 cell-line screen, HL-60-TB (Leukemia)
Experimental: as §1, §2

K-562 = experiment: NCI 60 cell-line screen, K-562 (Leukemia)
Experimental: as §1, §2

MOLT-4 = experiment: NCI 60 cell-line screen, MOLT-4 (Leukemia)
Experimental: as §1, §2

RPMI-8226 = experiment: NCI 60 cell-line screen, RPMI-8226 (Leukemia)
Experimental: as §1, §2

SR = experiment: NCI 60 cell-line screen, SR (Leukemia)
Experimental: as §1, §2

A549/ATCC = experiment: NCI 60 cell-line screen, A549/ATCC (Lung)
Experimental: as §1, §2

EKVX = experiment: NCI 60 cell-line screen, EKVX (Lung)
Experimental: as §1, §2

HOP-62 = experiment: NCI 60 cell-line screen, HOP-62 (Lung)
Experimental: as §1, §2

HOP-92 = experiment: NCI 60 cell-line screen, HOP-92 (Lung)
Experimental: as §1, §2

NCI-H226 = experiment: NCI 60 cell-line screen, NCI-H226 (Lung)
Experimental: as §1, §2

NCI-H23 = experiment: NCI 60 cell-line screen, NCI-H23 (Lung)
Experimental: as §1, §2

NCI-H322M = experiment: NCI 60 cell-line screen, NCI-H322M (Lung)
Experimental: as §1, §2

NCI-H460 = experiment: NCI 60 cell-line screen, NCI-H460 (Lung)
Experimental: as §1, §2

NCI-H522 = experiment: NCI 60 cell-line screen, NCI-H522 (Lung)
Experimental: as §1, §2

COLO 205 = experiment: NCI 60 cell-line screen, COLO 205 (Colon)
Experimental: as §1, §2

HCC-2998 = experiment: NCI 60 cell-line screen, HCC-2998 (Colon)
Experimental: as §1, §2

HCT-116 = experiment: NCI 60 cell-line screen, HCT-116 (Colon)
Experimental: as §1, §2

HCT-15 = experiment: NCI 60 cell-line screen, HCT-15 (Colon)
Experimental: as §1, §2

HT29 = experiment: NCI 60 cell-line screen, HT29 (Colon)
Experimental: as §1, §2

KM12 = experiment: NCI 60 cell-line screen, KM12 (Colon)
Experimental: as §1, §2

SW-620 = experiment: NCI 60 cell-line screen, SW-620 (Colon)
Experimental: as §1, §2

SF-268 = experiment: NCI 60 cell-line screen, SF-268 (Brain)
Experimental: as §1, §2

SF-295 = experiment: NCI 60 cell-line screen, SF-295 (Brain)
Experimental: as §1, §2

SF-539 = experiment: NCI 60 cell-line screen, SF-539 (Brain)
Experimental: as §1, §2

SNB-19 = experiment: NCI 60 cell-line screen, SNB-19 (Brain)
Experimental: as §1, §2

SNB-75 = experiment: NCI 60 cell-line screen, SNB-75 (Brain)
Experimental: as §1, §2

U251 = experiment: NCI 60 cell-line screen, U251 (Brain)
Experimental: as §1, §2

LOX-IMVI = experiment: NCI 60 cell-line screen, LOX-IMVI (Melanoma)
Experimental: as §1, §2

MALME-3M = experiment: NCI 60 cell-line screen, MALME-3M (Melanoma)
Experimental: as §1, §2

M14 = experiment: NCI 60 cell-line screen, M14 (Melanoma)
Experimental: as §1, §2

salicylihalamide A
negative log10 GI50 (CCRF-CEM): 7.89 | negative log10 GI50 (HL-60-TB): 9.04 | negative log10 GI50 (K-562): 8.41 | negative log10 GI50 (MOLT-4): 7.96 | negative log10 GI50 (RPMI-8226): 7.89 | negative log10 GI50 (SR): 8.44 | negative log10 GI50 (A549/ATCC): 8.54 | negative log10 GI50 (EKVX): 7.52 | negative log10 GI50 (HOP-62): 8.38 | negative log10 GI50 (HOP-92): 7.77 | negative log10 GI50 (NCI-H226): 8.80 | negative log10 GI50 (NCI-H23): 6.55 | negative log10 GI50 (NCI-H322M): 6.72 | negative log10 GI50 (NCI-H460): 9.01 | negative log10 GI50 (NCI-H522): 7.26 | negative log10 GI50 (COLO 205): 8.07 | negative log10 GI50 (HCC-2998): 6.74 | negative log10 GI50 (HCT-116): 8.74 | negative log10 GI50 (HCT-15): 8.44 | negative log10 GI50 (HT29): 8.54 | negative log10 GI50 (KM12): 8.30 | negative log10 GI50 (SW-620): 7.54 | negative log10 GI50 (SF-268): 7.55 | negative log10 GI50 (SF-295): 8.96 | negative log10 GI50 (SF-539): 7.89 | negative log10 GI50 (SNB-19): 6.47 | negative log10 GI50 (SNB-75): 6.21 | negative log10 GI50 (U251): 7.57 | negative log10 GI50 (LOX-IMVI): 9.11 | negative log10 GI50 (MALME-3M): 7.62 | negative log10 GI50 (M14): 8.92
